Measured values as given in patent publication US10087217B2 (priority 2013, dated 2018).

Tested on: U87 cells
Assay: Competitive inhibition of integrin targeted transduction mediated by AAV2^N587+1/azido+RGD
Format: cell-based

## dibenzocyclooctyne [DIBO]
  competitive inhibition of DIBO-RGD coupling effect: competitively inhibit
